From patent publication US8410310B2, “Trypsin-like serine protease inhibitors, and their preparation and use” (The Medicines Company (Leipzig) GmbH, priority 2006, dated 2013) come the findings set out here.

pKi: −log10 of the molar value. Read-outs that look alike come from different tables or passages of the source.

Format in all cases: biochemical
For one assay, the target named is plasma kallikrein (Homo sapiens, UniProt P03952). In words: Determination of inhibition constants for PK. More on the design: purchased Enzyme Research Lab. / Enzyme Research Laboratories. As for the experimental part: (§1) The inhibitory effect for the individual enzymes was determined in analogy to a previously disclosed method (Stürzebecher et al., 1997).
(§2) For zero order kinetics, the reaction was stopped after 20 min by adding 25 μl of acetic acid (50% v/v), and the absorption at 405 nm was determined using a Microplate Reader (Multiscan Ascent, from Thermo). In the case of pseudo-first order kinetics, the reaction rates in the equilibrium state were ascertained by recording the reaction kinetics. The Ki values were ascertained either in accordance with Dixon (1953) by linear regression using a computer program or by parameter fitting in accordance with the rate equation for competitive inhibition. The Ki values are the average of at least two determinations.

The target of a further assay is Thrombin (Homo sapiens, UniProt P00734). Nature of the assay: Determination of inhibition constants for thrombin. As for the experimental part:
as §1, §2

The next assay concerns the target Xa (Homo sapiens, UniProt P00742). In words: Determination of inhibition constants for Xa. As for the experimental part:
as §1, §2

The next assay deals with plasmin (Homo sapiens, UniProt P00747). Nature of the assay: Determination of inhibition constants for plasmin. Further details: purchased Calbiochem. The conditions noted are these: 25° C., substrate Chromozym PL, pH 8.0; read-out: Plasmin [Ki]. As for the experimental part: as §1, §2
Setting [1] is: 25° C., substrate S2302, pH 8.0, read-out: PK [Ki].
The mark [2] stands for this setting: summary of results, read-out: Ki value of the plasma kallikrein inhibition.

Sequence of plasma kallikrein (P03952 391-638 limits assumed): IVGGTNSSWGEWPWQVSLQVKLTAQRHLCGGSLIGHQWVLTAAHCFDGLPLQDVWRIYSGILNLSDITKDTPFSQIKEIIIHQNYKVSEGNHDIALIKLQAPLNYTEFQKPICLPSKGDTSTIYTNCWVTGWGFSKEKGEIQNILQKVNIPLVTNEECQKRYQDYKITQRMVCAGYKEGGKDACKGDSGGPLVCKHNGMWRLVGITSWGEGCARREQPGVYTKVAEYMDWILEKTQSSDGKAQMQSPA
Sequence of plasma kallikrein (P03952 20-390 partner limits assumed): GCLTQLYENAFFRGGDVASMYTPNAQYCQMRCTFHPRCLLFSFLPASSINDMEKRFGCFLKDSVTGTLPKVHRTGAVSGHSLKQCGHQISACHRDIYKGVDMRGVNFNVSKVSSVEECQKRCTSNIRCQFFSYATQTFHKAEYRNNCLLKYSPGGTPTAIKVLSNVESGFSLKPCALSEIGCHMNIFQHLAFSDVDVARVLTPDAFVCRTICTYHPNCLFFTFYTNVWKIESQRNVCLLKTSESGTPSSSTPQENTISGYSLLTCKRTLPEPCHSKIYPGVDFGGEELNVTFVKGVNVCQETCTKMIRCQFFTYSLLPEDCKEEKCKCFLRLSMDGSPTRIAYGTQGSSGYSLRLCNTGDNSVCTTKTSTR
Sequence of plasmin (P00747 581-810 limits assumed): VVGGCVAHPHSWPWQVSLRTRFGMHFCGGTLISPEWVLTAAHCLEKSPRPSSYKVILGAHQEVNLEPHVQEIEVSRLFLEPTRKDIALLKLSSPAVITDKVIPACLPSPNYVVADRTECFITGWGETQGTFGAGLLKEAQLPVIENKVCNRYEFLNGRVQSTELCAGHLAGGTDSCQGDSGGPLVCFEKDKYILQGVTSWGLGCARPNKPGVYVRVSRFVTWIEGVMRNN
Sequence of plasmin (P00747 97-580 partner limits assumed): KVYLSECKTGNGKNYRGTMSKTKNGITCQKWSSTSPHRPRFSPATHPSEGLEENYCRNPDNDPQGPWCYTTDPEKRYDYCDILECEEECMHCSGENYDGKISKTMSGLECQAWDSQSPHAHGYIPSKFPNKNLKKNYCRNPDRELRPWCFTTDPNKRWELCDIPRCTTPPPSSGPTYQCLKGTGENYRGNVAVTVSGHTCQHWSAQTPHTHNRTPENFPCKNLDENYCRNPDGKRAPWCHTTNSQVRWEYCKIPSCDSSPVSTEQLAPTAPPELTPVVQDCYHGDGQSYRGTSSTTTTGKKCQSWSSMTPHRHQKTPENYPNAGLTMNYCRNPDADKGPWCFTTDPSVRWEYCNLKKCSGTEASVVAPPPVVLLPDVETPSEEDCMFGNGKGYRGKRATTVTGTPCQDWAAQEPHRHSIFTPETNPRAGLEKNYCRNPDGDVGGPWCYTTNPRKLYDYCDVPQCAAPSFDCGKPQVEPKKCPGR
Sequence of Xa (P00742 235-488 limits assumed): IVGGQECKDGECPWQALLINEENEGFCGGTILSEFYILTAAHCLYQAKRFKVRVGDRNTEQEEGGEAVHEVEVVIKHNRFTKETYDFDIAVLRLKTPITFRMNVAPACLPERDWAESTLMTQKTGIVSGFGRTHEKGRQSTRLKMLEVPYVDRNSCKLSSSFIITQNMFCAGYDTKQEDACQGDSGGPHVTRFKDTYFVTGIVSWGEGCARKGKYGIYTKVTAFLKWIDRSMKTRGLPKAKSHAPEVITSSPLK
Sequence of Xa (P00742 41-179 limits assumed): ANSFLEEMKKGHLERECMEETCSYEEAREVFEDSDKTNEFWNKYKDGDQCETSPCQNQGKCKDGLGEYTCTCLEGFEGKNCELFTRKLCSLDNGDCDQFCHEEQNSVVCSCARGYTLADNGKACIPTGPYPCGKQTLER

Turning to `CC(C)(C)OC(=O)NCCCC[C@@H](NS(=O)(=O)Cc1ccccc1)C(=O)N[C@@H](Cc1cccc(CN)c1)C(=O)NCc1ccc(C(=N)N)cc1` [compound 57], the negative-log Ki (pKi) (commonly the negative decadic logarithm of the Ki, by convention in mol/L) on plasma kallikrein (setting [1]) was greater than 8.00; on Thrombin, less than 6.00; at Xa it was greater than 7.00; on plasmin it was greater than 8.00.

With `CC(C)(C)OC(=O)NCCCC[C@@H](NS(=O)(=O)Cc1ccc(C(=O)O)cc1)C(=O)N[C@@H](Cc1cccc(CN)c1)C(=O)NCc1ccc(C(=N)N)cc1` [compound 58], the pKi was greater than 8.00 on plasma kallikrein (setting [1]), less than 6.00 at Thrombin, greater than 6.00 at Xa and greater than 7.00 on plasmin.

Take `N=C(N)c1ccc(CNC(=O)[C@H](Cc2cccc(CN)c2)NC(=O)[C@@H](CCCCN)NS(=O)(=O)Cc2ccccc2)cc1` [compound 59]: the negative-log Ki (pKi) at plasma kallikrein (setting [1]) is greater than 8.00; on Thrombin, less than 6.00; at Xa, greater than 6.00; on plasmin, greater than 7.00.

Turning to `CC(C)(C)OC(=O)NC[C@@H](NS(=O)(=O)Cc1ccccc1)C(=O)N[C@@H](Cc1cccc(CN)c1)C(=O)NCc1ccc(C(=N)N)cc1` [compound 60], the pKi is greater than 8.00 at plasma kallikrein (setting [1]), less than 6.00 on Thrombin, greater than 6.00 at Xa and greater than 7.00 on plasmin.

Regarding `N=C(N)c1ccc(CNC(=O)[C@H](Cc2cccc(CN)c2)NC(=O)[C@@H](CN)NS(=O)(=O)Cc2ccccc2)cc1` [compound 61], the pKi on plasma kallikrein (setting [1]) was greater than 8.00; on Thrombin, less than 6.00; at Xa it was less than 6.00; on plasmin it was greater than 7.00.

Turning to `CC(C)(C)OC(=O)NCCCC[C@@H](NS(=O)(=O)Cc1ccccc1)C(=O)N[C@@H](CCc1ccncc1)C(=O)NCc1ccc(C(=N)N)cc1` [compound 62], the pKi was greater than 8.00 at plasma kallikrein (setting [1]), greater than 6.00 at Thrombin, greater than 6.00 on Xa and greater than 8.00 on plasmin.

Turning to `CC(C)(C)OC[C@@H](NS(=O)(=O)Cc1ccccc1)C(=O)N[C@@H](Cc1cccc(CN)c1)C(=O)NCc1ccc(C(=N)N)cc1` [compound 63], the pKi at plasma kallikrein (setting [1]) is greater than 8.00; at Thrombin, greater than 6.00; on Xa, greater than 6.00; at plasmin, greater than 8.00.

Consider `COC(=O)c1ccc(CS(=O)(=O)N[C@H](COC(C)(C)C)C(=O)N[C@@H](Cc2cccc(CN)c2)C(=O)NCc2ccc(C(=N)N)cc2)cc1` [compound 64], for which the pKi was greater than 8.00 at plasma kallikrein (setting [1]); greater than 9.00 at plasma kallikrein (setting [2]); less than 6.00 on Thrombin; less than 6.00 on Xa; greater than 8.00 on plasmin.

As for `CC(C)(C)OC[C@@H](NS(=O)(=O)Cc1ccc(C(=O)O)cc1)C(=O)N[C@@H](Cc1cccc(CN)c1)C(=O)NCc1ccc(C(=N)N)cc1` [compound 65], the pKi at plasma kallikrein (setting [1]) is greater than 8.00; at plasma kallikrein (setting [2]), greater than 9.00; on Thrombin, less than 6.00; on Xa, greater than 6.00; on plasmin, greater than 7.00.

For `COC(=O)c1cccc(CS(=O)(=O)N[C@H](COC(C)(C)C)C(=O)N[C@@H](Cc2cccc(CN)c2)C(=O)NCc2ccc(C(=N)N)cc2)c1` [compound 66], the pKi on plasma kallikrein (setting [1]) was greater than 8.00; on Thrombin, less than 6.00; at Xa, greater than 7.00; on plasmin, greater than 8.00.

For `CC(C)(C)OC[C@@H](NS(=O)(=O)Cc1cccc(C(=O)O)c1)C(=O)N[C@@H](Cc1cccc(CN)c1)C(=O)NCc1ccc(C(=N)N)cc1` [compound 67], the negative-log Ki (pKi) on plasma kallikrein (setting [1]) was greater than 8.00; at Thrombin, less than 6.00; on Xa it was greater than 7.00; at plasmin, greater than 8.00.

For the compound `N=C(N)c1ccc(CNC(=O)[C@H](Cc2cccc(CN)c2)NC(=O)[C@@H](CO)NS(=O)(=O)Cc2ccccc2)cc1` [compound 68], the pKi on plasma kallikrein (setting [1]) is greater than 8.00; at Thrombin, less than 6.00; at Xa it was less than 6.00; on plasmin it was greater than 7.00.

For `COC(=O)c1ccc(CS(=O)(=O)N[C@H](CO)C(=O)N[C@@H](Cc2cccc(CN)c2)C(=O)NCc2ccc(C(=N)N)cc2)cc1` [compound 69], the pKi at plasma kallikrein (setting [1]) was greater than 8.00; at Thrombin, less than 6.00; at Xa, less than 6.00; on plasmin it was greater than 7.00.
